# Measured values from patent US12661362B2, “Methods for the prevention and treatment of hearing loss” (Ting Therapeutics LLC, priority 2020, dated 2026).
# Tests used:
# zebrafish neuromast HCs [1] = assay: Niclosamide/ezetimibe combination hair cell protection in Cisplatin-treated zebrafish (Loewe synergy); assay type: in vivo; settings: concentrations above 2 nM, cisplatin 300 μM
# Description: Now referring to FIGS. 6A-6B, 5 dpf zebrafish were either incubated with vehicle (DMSO), cisplatin alone at 300 μM concentration, cisplatin and ezetimibe (0.002 μM to 13.3 μM), cisplatin and niclosamide (0.02 nM to 18.3 nM), or cisplatin and combination ezetimibe/niclosamide. After 6 hours, animals were transferred to fresh water for 1 hour and then sacrificed and processed for immunohistochemistry and HC count as described above. To further elucidate whether Niclosamide, synergizes with Nrf2 activators to protect zebrafish HCs from Cisplatin damage, we tested the extent of HC damage in presence of Niclosamide and a Nrf2 activator, ezetimibe.
# A three-dimensional contour plot (A) showing dose response of neuromast hair cell protection in zebrafish treated with varying concentrations of niclosamide and ezetimibe mapped to synergy distribution. […] Other dose combinations showing synergy are shown in dark blue boxes. Dose combinations with scores of 0 and 1 show additive effect. *P<5×10−2; **P<10−3, ***P<10−4 versus control fish, One-sample t-test run by the Combenefit software44. Data is shown as mean±standard deviation.
# Zebrafish were treated with combinations of Niclosamide (ranging from 0.02-18.3 nM) and EZ (ranging from 0.0183-13.3 μM).
# zebrafish neuromast HCs [2] = assay: Zebrafish lateral-line neuromast hair cell protection against Cisplatin; assay type: in vivo, Danio rerio
# Description: Danio rerio experimental larvae were obtained by pair mating of adult fish maintained at Creighton University by standard methods approved by the Institutional Animal Care and Use Committee. […] We used Tg(pou4f3:mGFP) expressing a membrane bound GFP in HCs. Experimental fish were maintained at 28.5° C. in E3 media (5 mM NaCl, 0.17 mM KCl, 0.33 mM CaCl2) and […], pH 7.2). Animals were cryoanaesthetized after drug treatment and prior to fixation. The neuromasts inspected, S03 and 01-2, were part of the cranial system and included the otic, middle, and opercular neuromasts.
# Subsequently, animals were transferred to E3 water for 5 hours and fixed in 4% paraformaldehyde (PFA) overnight (26). Neuromast HCs were immunolabeled with anti-otoferlin (HCS-1, DSHB) and anti-GFP (NB100-1614, Novus Biologicals). These two markers were used to detect and count neuromast HCs to reduce the chances of missing some of the HCs after the treatment since we previously noticed that incubation with the compounds can affect GFP expression more difficult to detect under a fluorescence microscope. Otic, middle, and opercular neuromasts were identified, and HCs at S03 (supraorbital line neuromast) and 01-2 (Otic line neuromasts) were manually counted using a Zeiss AxioSkop 2 fluorescence microscope with a 40× oil objective. Compounds were then evaluated on efficiency and potency, with the top-rated compounds showing high protection at lower concentrations.
# SHP77 = assay: Survival of SHP77 cells with or without Cisplatin and Niclosamide; assay type: cell-based; settings: 10 nM
# Description: Now referring to FIG. 8, In vitro model of […] incubated with or without Cisplatin and 10 nM of Niclosamide. Cells were maintained in culture with the aid of Matrigel as previously described in Kelley and Driver, Curr. Protoc. Neurosci. Ch.(4); Unit(4); 34.1-10 (2010). After cells had been in culture for 1 d, growth medium DMEM (12430-054; GIB CO Life Technologies, with 1% FBS [16000-044; GIB CO Life Technologies] and 50 μg/ml ampicillin) with or without test compounds may be added for preincubation for 1 hr. at 37° C. in 5% Co2, and may be followed by incubation with 50 μM Cisplatin (479306; Sigma-Aldrich) with or without the test compound in growth medium for 24 hr. at 37° C. A Cisplatin concentration of 50 μM may be used for the explant assay due to its consistent showing of decreases outer hair cells by about −40% in the mouse cochlea after 24 hours. Cochlea may be fixed in 4% PFA and stained for actin with Alex Fluor 568 phalloidin to determine the viability of the HCs. Cochlea may also be stained by DAPI, FM1-43 dye uptake, and immunohistochemical staining for known HC markers (including parvalbumin and myosin 7a. Cochlea may be imaged by confocal microscopy. Two 160-μm regions from middle turns may be photographed, and the number of intact HCs can be counted.
# Nrf2 = assay: nrf2a morpholino knock-down zebrafish exposed to cisplatin and niclosamide; assay type: in vivo; settings: non-injected and scrambled control zebrafish; 18.3 nM, cisplatin 300 μM
# Description: Additionally to FIGS. 6A-6B, but not shown, 5 dpf zebrafish were incubated for 6 hours with vehicle, niclosamide (2 nM to 1.48 μM) and the nrf2 pathway activator […] (DEM) as a positive control, in order to evaluate the effect of niclosamide on ggcsh, a nrf2 downstream target. Ggcsh was previously validated as a Nrf2 downstream target in zebrafish. (Sheets, 2017). Following incubation, the total RNA was isolated from whole fish and processed to measure the induced expression of nrf2 downstream gene ggcsh. […] Additionally, Nrf2a morpholinos morphlinos were prepared, followed by incubation of the zebrafish morphants with cisplatin and/or niclosamide. Zebrafish eggs were injected with 4.5 ng of scrambled morpholino or nrf2a morpholino (5′-[…] SEQ NO: 1). At 3 dpf non-injected and morphant animals were exposed to vehicle, cisplatin (300 μM), cisplatin+niclosamide 18.3 nM or niclosamide alone for 6 hours. Following 1-hour recovery, animals were fixed and processed for immunohistochemistry. Nrf2a KD was confirmed by analyzing expression of Glutathione S-transferase P1 (gstp1), a downstream target, due to lack of proper antibody to detect Nrf2 protein in zebrafish.
structure (smiles),measurement,setting,value
"O=C(Nc1ccc([N+](=O)[O-])cc1Cl)c1cc(Cl)ccc1O [Niclosamide, 5-chloro-N-(2-chloro-4-nitrophenyl)-2-hydroxy-benzamide]","HC per neuromast counts, compound alone",zebrafish neuromast HCs [1],higher counts
same,highest level of protection of neuromast HCs,"zebrafish neuromast HCs [2]; 0.002 μM, lowest concentration tested, normalized to Cisplatin only (0%) and DMSO (100%)",~50%
same,hair cell loss (fluorescent staining of neuromasts),"zebrafish neuromast HCs [2]; 0.002-13.3 μM, Cisplatin-treated zebrafish",reduce hair cell loss
same,Cisplatin damage in zebrafish HCs at S03 and O1-2,zebrafish neuromast HCs [2]; pretreated with 0.002 μM,significantly reduced Cisplatin damage
same,effect on Cisplatin-tumor killing activity,SHP77,did not affect Cisplatin-tumor killing activity
same,hair cell number after cotreatment with cisplatin,Nrf2,significantly higher hair cell number
